Molecules are shown by their SMILES.

The test concerns the target T1, human IBAT (Homo sapiens, UniProt Q12908).
T1 construct: expressed in transfected cells; host or cells: Cos 7
T1 sequence (Q12908 1-348): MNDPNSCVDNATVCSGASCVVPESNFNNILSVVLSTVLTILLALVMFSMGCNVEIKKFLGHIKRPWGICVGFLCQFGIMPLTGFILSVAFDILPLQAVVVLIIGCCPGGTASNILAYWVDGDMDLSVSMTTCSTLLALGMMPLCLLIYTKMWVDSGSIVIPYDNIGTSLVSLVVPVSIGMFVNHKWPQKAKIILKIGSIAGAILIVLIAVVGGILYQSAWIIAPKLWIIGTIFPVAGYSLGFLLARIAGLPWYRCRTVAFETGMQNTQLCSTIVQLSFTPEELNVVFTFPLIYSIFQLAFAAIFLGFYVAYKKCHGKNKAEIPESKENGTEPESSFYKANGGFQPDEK
Briefly: In vitro assay of temporarily expressed human IBAT transporter using Cos 7 cells (Test Example 8). Type of test: cell-based. To be noted: Cos 7 cells temporarily expressing human IBAT; [3H] taurocholate 8 μM, 37° C., 60 minutes. As to the method: In Vitro Assay of Compounds Which Inhibit Temporarily Expressed Human IBAT Transporter or Rat IBAT Transporter Using Cos 7 Cells
In this test example, the in vitro assay of the compounds which inhibit temporarily expressed human IBAT transporter or rat IBAT transporter using Cos cells was carried out according to the method described in Am. J. Physiol., 274, G157-169.
That is, […] Cos 7 were inoculated on a 24-well cell plate. One day later, 0.3 μg per well of cDNA of a human IBAT or a rat IBAT was transfected by using FuGENE6 (manufactured by ROCHE PHARMACEUTICAL CO., LTD.). For the assay, the cells cultured for one day after the transfection were used and the following procedure was followed. The cells were washed once with an assay buffer, Hank's buffer solution containing 25 mM glucose and with 10 mM HEPES (pH 7.4), and then the assay buffer was replaced by an assay buffer to which the test compound was added. After adding [^3H] taurocholate to a final concentration of 8 μM, the cells were incubated at 37° C. for 60 minutes. [^3H] taurocholate was allowed to be incorporated in Cos 7 cells through human IBAT or rat IBAT. The reaction was stopped by washing twice with a buffer prepared by adding 1 mM taurocholate to the assay buffer and lyzing the cells with 0.2M NaOH. Measurement of radioactivity was carried out by introducing the cell lyzate in 4 ml of liquid scintillation cocktail, stirring the mixture well, and then measuring the radioactivity by a scintillation counter.
A word on the IC50: it is the concentration that gives 50% inhibition. Take `CCCCC1(CCCC)CS(=O)(=O)c2ccc(N(C)C)cc2C(c2cccc(NC(=S)Nc3ccc(C[N+]45CCC(CC4)C(=O)C5)cc3)c2)N1` (centres unmarked) [Example 3698]: the IC50 worked out at 72 nM. For `CCCCC1(CCCC)CS(=O)(=O)c2ccc(N(C)C)cc2C(c2cccc(NC(=S)Nc3ccc(C[n+]4ccccc4)cc3)c2)N1` (centres unmarked) [Example 3708] the value was 70 nM; for `CCCCC1(CCCC)CS(=O)(=O)c2ccc(N(C)C)cc2C(c2cccc(NC(=S)Nc3ccc(C[n+]4ccc(CCC)cc4)cc3)c2)N1` (centres unmarked) [Example 3711], 63 nM. `CCCCC(CCCC)c1cc[n+](Cc2ccc(NC(=S)Nc3cccc(C4NC(CCCC)(CCCC)CS(=O)(=O)c5ccc(N(C)C)cc54)c3)cc2)cc1` (centres unmarked) [Example 3716] returned an IC50 of 89 nM. For `CCCCC1(CCCC)CS(=O)(=O)c2ccc(N(C)C)cc2C(c2cccc(NC(=S)Nc3ccc(C[n+]4ccc(-c5ccccc5)cc4)cc3)c2)N1` (centres unmarked) [Example 3717] the value was 30 nM. In the case of `CCCCC1(CCCC)CS(=O)(=O)c2ccc(N(C)C)cc2C(c2cccc(NC(=S)Nc3ccc(C[n+]4cccc(CC)c4)cc3)c2)N1` (centres unmarked) [Example 3722] it was 39 nM. In the case of `CCCCC1(CCCC)CS(=O)(=O)c2ccc(N(C)C)cc2C(c2cccc(NC(=S)Nc3ccc(C[n+]4cccc(-c5ccccc5)c4)cc3)c2)N1` (centres unmarked) [Example 3724] it was 69 nM; in that of `CCCCC1(CCCC)CS(=O)(=O)c2ccc(N(C)C)cc2C(c2cccc(NC(=S)Nc3ccc(C[n+]4cccc(Cc5ccccc5)c4)cc3)c2)N1` (centres unmarked) [Example 3725], 52 nM; in that of `CCCCC1(CCCC)CS(=O)(=O)c2ccc(N(C)C)cc2C(c2cccc(NC(=S)Nc3ccc(C[n+]4cccc(-c5cccs5)c4)cc3)c2)N1` (centres unmarked) [Example 3726], 73 nM. `CCCCC1(CCCC)CS(=O)(=O)c2ccc(N(C)C)cc2C(c2cccc(NC(=S)Nc3ccc(C[n+]4ccc(C)c(C)c4)cc3)c2)N1` (centres unmarked) [Example 3727]: inhibition was half-maximal at 66 nM (IC50). The IC50 values of the last two molecules are within 1.5-fold of each other. In the case of `CCCCC1(CCCC)CS(=O)(=O)c2ccc(N(C)C)cc2C(c2cccc(NC(=S)Nc3ccc(C[n+]4cc(C)cc(C)c4)cc3)c2)N1` (centres unmarked) [Example 3729] it was 88 nM; in that of `CCCCC1(CCCC)CS(=O)(=O)c2ccc(N(C)C)cc2C(c2cccc(NC(=S)Nc3ccc(C[n+]4cc(C)cc(-c5ccccc5)c4)cc3)c2)N1` (centres unmarked) [Example 3730], 84 nM; in that of `CCCCC1(CCCC)CS(=O)(=O)c2ccc(N(C)C)cc2C(c2cccc(NC(=S)Nc3ccc(C[n+]4ccc(CCCO)cc4)cc3)c2)N1` (centres unmarked) [Example 3733], 57 nM. For `CCCCC1(CCCC)CS(=O)(=O)c2ccc(N(C)C)cc2C(c2cccc(NC(=S)Nc3ccc(C[n+]4ccc(C(C)=O)cc4)cc3)c2)N1` (centres unmarked) [Example 3736] the value was 50 nM; for `CCCCC1(CCCC)CS(=O)(=O)c2ccc(N(C)C)cc2C(c2cccc(NC(=S)Nc3ccc(C[n+]4cccc(C(=O)c5ccccc5)c4)cc3)c2)N1` (centres unmarked) [Example 3748], 81 nM; for `CCCCCCOC(=O)c1ccc[n+](Cc2ccc(NC(=S)Nc3cccc(C4NC(CCCC)(CCCC)CS(=O)(=O)c5ccc(N(C)C)cc54)c3)cc2)c1` (centres unmarked) [Example 3750], 75 nM. In the case of `CCCCC1(CCCC)CS(=O)(=O)c2ccc(N(C)C)cc2C(c2cccc(NC(=S)Nc3ccc(C[n+]4ccc(C(N)=O)cc4)cc3)c2)N1` (centres unmarked) [Example 3754] it was 92 nM; in that of `CCCCC1(CCCC)CS(=O)(=O)c2ccc(N(C)C)cc2C(c2cccc(NC(=S)Nc3ccc(C[n+]4ccc(CCc5ccncc5)cc4)cc3)c2)N1` (centres unmarked) [Example 3764], 80 nM. The molecule `CCCCC1(CCCC)CS(=O)(=O)c2ccc(N(C)C)cc2C(c2cccc(NC(=S)Nc3ccc(C[n+]4cccc5ccccc54)cc3)c2)N1` (centres unmarked) [Example 3768] gave a 50% inhibitory concentration (IC50) of 72 nM. In the case of `CCCCC1(CCCC)CS(=O)(=O)c2ccc(N(C)C)cc2C(c2cccc(NC(=S)Nc3ccc(C[n+]4cccc5cc(C)ccc54)cc3)c2)N1` (centres unmarked) [Example 3770] it was 57 nM; in that of `CCCCC1(CCCC)CS(=O)(=O)c2ccc(N(C)C)cc2C(c2cccc(NC(=S)Nc3ccc(C[n+]4cccc5cc(C(C)C)ccc54)cc3)c2)N1` (centres unmarked) [Example 3772], 89 nM. For `CCCCC1(CCCC)CS(=O)(=O)c2ccc(N(C)C)cc2C(c2cccc(NC(=S)CCCCC[N+]34CCC(CC3)C(O)C4)c2)N1` (centres unmarked) [Example 3854] the value was 28 nM; for `CCCCC1(CCCC)CS(=O)(=O)c2ccc(N(C)C)cc2C(c2cccc(NC(=S)Nc3ccc(C[n+]4cccc5c4CCCC5)cc3)c2)N1` (centres unmarked) [Example 4221], 43 nM; for `CCCCC1(CCCC)CS(=O)(=O)c2ccc(N(C)C)cc2C(c2cccc(NC(=S)Nc3ccc(C[n+]4ccc5c(c4)CCCC5)cc3)c2)N1` (centres unmarked) [Example 4223], 25 nM.

`CCCCC1(CCCC)CS(=O)(=O)c2ccc(N(C)C)cc2C(c2cccc(NC(=S)Nc3cccc(C[N+](C)(C)CCCC)c3)c2)N1` (centres unmarked) [Example 4226] yielded an IC50 of 99 nM. Molecule `CCCCC1(CCCC)CS(=O)(=O)c2ccc(N(C)C)cc2C(c2cccc(NC(=S)Nc3cccc(C[N+](CC)(CC)CC)c3)c2)N1` (centres unmarked) [Example 4232] came in with an IC50 of 99 nM.

In turn, `CCCCC1(CCCC)CS(=O)(=O)c2ccc(N(C)C)cc2C(c2cccc(NC(=S)Nc3cccc(C[N+](CC)(CC)CCCC)c3)c2)N1` (centres unmarked) [Example 4233] had an IC50 of 46 nM. The molecule `CCCCC1(CCCC)CS(=O)(=O)c2ccc(N(C)C)cc2C(c2cccc(NC(=S)Nc3cccc(C[N+](C)(CCC)CCC)c3)c2)N1` (centres unmarked) [Example 4243] gave an IC50 of 78 nM. As for `C=CC[N+](C)(C)Cc1cccc(NC(=S)Nc2cccc(C3NC(CCCC)(CCCC)CS(=O)(=O)c4ccc(N(C)C)cc43)c2)c1` (centres unmarked) [Example 4246], 72 nM corresponded to half-maximal inhibition (IC50). The IC50 values of the last two molecules are within 1.5-fold of each other. For `C=CC[N+](CC)(CC)Cc1cccc(NC(=S)Nc2cccc(C3NC(CCCC)(CCCC)CS(=O)(=O)c4ccc(N(C)C)cc43)c2)c1` (centres unmarked) [Example 4247] the value was 91 nM; for `CCCCC1(CCCC)CS(=O)(=O)c2ccc(N(C)C)cc2C(c2cccc(NC(=S)Nc3cccc(C[N+](C)(C)CCc4ccccc4)c3)c2)N1` (centres unmarked) [Example 4259], 67 nM; for `CCCCC1(CCCC)CS(=O)(=O)c2ccc(N(C)C)cc2C(c2cccc(NC(=S)Nc3cccc(C[N+](C)(CC)Cc4ccccc4)c3)c2)N1` (centres unmarked) [Example 4260], 74 nM.

As for `C=Cc1ccc(C[N+](C)(C)Cc2cccc(NC(=S)Nc3cccc(C4NC(CCCC)(CCCC)CS(=O)(=O)c5ccc(N(C)C)cc54)c3)c2)cc1` (centres unmarked) [Example 4263], the IC50 came out at 72 nM. Molecule `CCCCC1(CCCC)CS(=O)(=O)c2ccc(N(C)C)cc2C(c2cccc(NC(=S)Nc3cccc(C[N+](C)(C)Cc4cccc(OC)c4)c3)c2)N1` (centres unmarked) [Example 4371] registered an IC50 of 74 nM. The IC50 values of the last two molecules are within 1.5-fold of each other. In the case of `CCCCC1(CCCC)CS(=O)(=O)c2ccc(N(C)C)cc2C(c2cccc(NC(=S)Nc3cccc(C[N+]4(CC)CCCCC4)c3)c2)N1` (centres unmarked) [Example 4405], the IC50 was 62 nM. In the case of `C=CC[N+]1(Cc2cccc(NC(=S)Nc3cccc(C4NC(CCCC)(CCCC)CS(=O)(=O)c5ccc(N(C)C)cc54)c3)c2)CCCCC1` (centres unmarked) [Example 4408] it was 73 nM; in that of `CCCCC1(CCCC)CS(=O)(=O)c2ccc(N(C)C)cc2C(c2cccc(NC(=S)Nc3cccc(C[N+]4(C)CCN(C)CC4)c3)c2)N1` (centres unmarked) [Example 4479], 78 nM; in that of `CCCCC1(CCCC)CS(=O)(=O)c2ccc(N(C)C)cc2C(c2cccc(NC(=S)Nc3cccc(C[N+]45CCC(c6ccccc6)(CC4)CC5)c3)c2)N1` (centres unmarked) [Example 4513], 92 nM. For `CCCCC1(CCCC)CS(=O)(=O)c2ccc(N(C)C)cc2C(c2cccc(NC(=S)Nc3cccc(C[N+]45CCN(CC4)CC5)c3)c2)N1` (centres unmarked) [Example 4522] the value was 97 nM.

The molecule `CCCCC1(CCCC)CS(=O)(=O)c2ccc(N(C)C)cc2C(c2cccc(NC(=S)Nc3cccc(C[n+]4ccc(CC)cc4)c3)c2)N1` (centres unmarked) [Example 4527] displayed an IC50 of 73 nM. The IC50 values of the last two molecules are within 1.5-fold of each other. For `CCCCC1(CCCC)CS(=O)(=O)c2ccc(N(C)C)cc2C(c2cccc(NC(=S)Nc3cccc(C[n+]4ccc(CCC)cc4)c3)c2)N1` (centres unmarked) [Example 4528] the value was 91 nM; for `CCCCC1(CCCC)CS(=O)(=O)c2ccc(N(C)C)cc2C(c2cccc(NC(=S)Nc3cccc(C[n+]4ccc(-c5ccccc5)cc4)c3)c2)N1` (centres unmarked) [Example 4534], 76 nM. In the case of `CCCCC1(CCCC)CS(=O)(=O)c2ccc(N(C)C)cc2C(c2cccc(NC(=S)Nc3cccc(C[n+]4cccc(CC)c4)c3)c2)N1` (centres unmarked) [Example 4539] it was 64 nM; in that of `CCCCC1(CCCC)CS(=O)(=O)c2ccc(N(C)C)cc2C(c2cccc(NC(=S)Nc3cccc(C[n+]4cccc(-c5cccs5)c4)c3)c2)N1` (centres unmarked) [Example 4543], 82 nM.

Source of the values: patent US7803792B2, “Quaternary ammonium compounds” (Asahi Kasei Pharma Corporation, priority 2002, dated 2010).
